# Results as given in patent US12389905B2, “Synergistic mixture of plant defense inductors” (LIDA PLANT RESEARCH S.L., priority 2018, dated 2025).
# Several values for one entry are separate records, joined by “and”; a condition that tells them apart may be missing. Equal entries are not always repeated. Where two headings read alike, the source gives them in different places.
# How the values were obtained:
# Type in all cases: in vivo
# [1] = system: PR1 (PATHOGENESIS-RELATED PROTEIN 1) gene; test: PR1 gene expression (qPCR) in sprayed Arabidopsis thaliana plants
# [2] = system: PDF1.2 (PLANT DEFENSIN 1.2) gene; test: PDF1.2 gene expression (qPCR) in sprayed Arabidopsis thaliana plants
# Description: Wild-type Arabidopsis thaliana Col-0 seeds were grown in pots under a 16 hours day/8 hours night (long day) photoperiod, with a daytime temperature of 22° C., a night temperature of 20° C., and a relative humidity of 65%. Plants were sprayed with each inductor dissolved in water (inductors alone or in combination). 24 and 48 hours after treatment (hours post treatment, hpt), tissue samples were harvested and gene expression analysis of specific defense marker genes was performed, through quantitative PCR technology (qPCR).
# The genes involved in plant defense analyzed were one or more of the following 5: • PR1 (PATHOGENESIS-RELATED PROTEIN 1). AGI code: AT2G14610 • PDF1.2 (PLANT DEFENSIN 1.2). AGI code: AT5G44420 • PR2 (PATHOGENESIS-RELATED PROTEIN 2; BETA-1,3-GLUCANASE 2). AGI code: AT3G57260 • PR5 (PATHOGENESIS-RELATED GENE 5). AGI code: AT1G75040 • ICS1 (ISO[…] 1). AGI code: AT1G74710
# UBC21 (UBIQUITIN-CONJUGATING ENZYME 21; AGI code: AT5G25760) was the normalization (or housekeeping) gene used.
# PR1 (Salicylic acid-signaling pathway marker gene) and PDF1.2 (Jasmonic acid-signaling pathway marker gene) are important marker genes of plant defense system, because they are necessary to plant defense mechanisms activation.
# In order to evaluate if there is a synergistic effect between different possible combinations, Limpel/Colby's formula was used. This formula is used to calculated the expected activity of combinations containing two active ingredients, A and B: Expected (E)=A+B−(A×B/100) Wherein, • A=observed gene activation of active component A at the same concentration as used in the mixture • B=observed gene activation of active component B at the same concentration as used in the mixture
# When the activity found experimentally (observed) is greater than the value of E, said activity should be considered as being a synergistic effect, and Synergy Factor (F) is >1: Synergy Factor (F)=Observed activity/Expected activity (E)
# In the following: • OV: Observed gene activation value • CEV: Colby expected gene activation value with the mixture [CEV=A+B−(A×B/100)] Synergy Factor (F)=OV(A+B)/CEV(A+B) • hpt: hours post treatment.
# [3] = system: Pseudomonas cannbina pv. alisalensis on Chinese cabbage
# [4] = system: Pyricularia oryzae on rice; details: soil drench
# [5] = system: Colletotrichum orbiculare on cucumber; test: Anthracnose on cucumber, greenhouse disease control; details: spray; 100 ppm
# [6] = system: Pseudomonas syringae pv. Lachrymans on cucumber; test: Bacterial spot on cucumber, greenhouse disease control; details: spray, 100 ppm
# Description: (§1) The experiments were carried out under controlled greenhouse conditions. The effects of temperature, humidity and light conditions in the greenhouse chambers were adjusted according to host plants and pathogens needs.
# (§2) The efficacy or disease control value (W) was calculated according to Abbott's formula: W=(1−x/y)×100 wherein • x=percentage of fungal or bacterial infection in treated plants • y=percentage of fungal or bacterial infection in untreated control plants
# (§3) An efficacy of 0 means the infection level of the treated plants corresponds to that of the untreated control plants; and efficacy of 100 means that the treated plants are not infected.
# (§4) In order to evaluate if there is a synergistic effect between different possible combinations, Limpel/Colby's formula was used.
# (§5) Synergy Factor (F)=OV(A+B)/CEV(A+B) 1. Podosphaera xanthii on Cucumber
# 1.2-leaf stage cucumber plants (cv. Suzunari-suyo), grown in pots under controlled conditions, were treated by spraying of the leaves with the mixture in question, dispersed in an aqueous solution. After 2 days, plants were inoculated and infected with an aqueous suspension of Pseudomonas syringae pv. Lachrymans (1×10^8 cfu/ml), and they were kept in a growth chamber at 25° C. and 90% RH. 7 days after pathogen inoculation, infection levels were assessed and percentages of disease control and expected values were calculated according to Abbott's and Colby's formulas, respectively.
# [7] = system: Podosphaera xanthii on cucumber; test: Powdery mildew on cucumber, greenhouse disease control
# Description: as §1, §2, §3, §4, §5
# 1.2-leaf stage cucumber plants (cv. Suzunari-suyo), grown in pots under controlled conditions, were treated by spraying of the leaves or by soil drenching with the mixture in question, dispersed in an aqueous solution. Plants were kept in a growth chamber at 25° C. and 80% RH. After 7 days, plants were inoculated and infected with a spore suspension of Podosphaera xanthii, and, 10 days after pathogen inoculation, infection levels were assessed and percentages of disease control and expected values were calculated according to Abbott's and Colby's formulas, respectively.
# [8] = system: Phakopsora pachyrhizi on soybean; test: Asian rust on soybean, greenhouse disease control; details: B alone 100 ppm, leaf spray
# Description: as §1, §2, §3
# In order to evaluate if there is a synergistic effect between different possible combinations, Limpel/Colby's formula was used. This formula is used to calculated the expected disease control value of combinations containing two active ingredients, A and B: Expected (E)=A+B−(A×B/100) wherein, • A=observed disease control value of component A, at the same concentration as used in the mixture • B=observed disease control value of component B, at the same concentration as used in the mixture
# When the disease control value found experimentally (observed) with the combination is greater than the value of E, said activity should be considered as being a synergistic effect, and Synergy Factor (F) is >1: Synergy Factor (F)=Observed disease control value/Expected disease control value (E)
# As above, in the following Tables: • OV: Observed control value • CEV: Colby expected control value with the mixture [CEV=A+B−(A×B/100)] Synergy Factor (F)=OV(A+B)/CEV(A+B) 1. Podosphaera xanthii on Cucumber
# 1.5-leaf stage soybean plants (cv. Tsurunoko-daizu), grown in pots under controlled conditions, were treated by spraying of the leaves with the mixture in question, dispersed in an aqueous solution. After 7 days, plants were inoculated and infected with a spore suspension of Phakopsora pachyrhizi(1×10^6 uredospores/ml), and they were kept in a growth chamber at 25° C. and 90% RH. 10 days after pathogen inoculation, infection levels were assessed and percentages of disease control and expected values were calculated according to Abbott's and Colby's formulas, respectively.
# [9] = Combinations with Chitooligosaccharides
# [10] = Test 3 (soil drench treatment), 100 ppm
# [11] = Test 4 (spray treatment), 100 ppm
molecule,measurement,setting,value
"2-amino-3,5-dichlorobenzoic acid (3,5-dichloroanthranilic acid)",PR1 gene activation OV A or B (single component),"[1]; 25 ppm, 24 hpt",4.61 n-fold
same,PR1 gene activation OV A or B (single component),"[1]; 25 ppm, 48 hpt",4.14 n-fold
same,PDF1.2 gene activation OV A or B (single component),"[2]; 25 ppm, 48 hpt",5.70 n-fold
"O=C(O)c1cc(Cl)nc(Cl)c1 [2,6-Dichloroisonicotinic acid, 2,6-dichloro-isonicotinic acid]",Percentage of disease control OV A or B (single component),[3]; 300 ppm,83%
same,Percentage of disease control B,[3]; in vivo,83%
same,PR1 gene activation OV A or B (single component),"[1]; 75 ppm, 24 hpt",15.45 n-fold
same,PR1 gene activation OV A or B (single component),"[1]; 75 ppm, 48 hpt",26.64 n-fold
same,PDF1.2 gene activation OV A or B (single component),"[2]; 75 ppm, 24 hpt",5.13 n-fold
same,PDF1.2 gene activation OV A or B (single component),"[2]; 75 ppm, 48 hpt",1.68 n-fold
"CSC(=O)c1cccc2nnsc12 [Acibenzolar-S-methyl, acibenzolar-S-methyl]",Percentage of disease control B,"[4]; Test 2, B alone 4 ppm",29%
same,Percentage of disease control B,"[4]; Test 2, B alone 10 ppm",49%
same,Percentage of disease control B,"[4]; Test 2, B alone 20 ppm",87%
same,Percentage of disease control B,"[4]; Test 2, B alone 40 ppm",83%
same,Percentage of disease control B,"[4]; Test 2, B alone 100 ppm",70%
same,Percentage of disease control B,"[4]; Test 3, B alone 100 ppm",71%
same,Percentage of disease control B,"[4]; Test 4, B alone 100 ppm",71%
same,Percentage of disease control OV A or B (single component),[5],92%
same,Percentage of disease control B,"[3]; Combinations with Carrageenan, Test 1, B alone 100 ppm, leaf spray",85%
same,Percentage of disease control B,"[3]; Combinations with Chitooligosaccharides, Test 2, B alone 4 ppm, leaf spray",5%
same,Percentage of disease control B,"[3]; Combinations with Chitooligosaccharides, Test 2, B alone 10 ppm, leaf spray",18%
same,Percentage of disease control B,"[3]; Combinations with Chitooligosaccharides, Test 2, B alone 20 ppm, leaf spray",12%
same,Percentage of disease control B,"[3]; Combinations with Chitooligosaccharides, Test 2, B alone 40 ppm, leaf spray",84%
same,Percentage of disease control B,"[3]; Combinations with Chitooligosaccharides, Test 2, B alone 100 ppm, leaf spray",89%
same,Percentage of disease control B,"[3]; Combinations with Chitooligosaccharides, Test 3, B alone 10 ppm, leaf spray",35%
same,Percentage of disease control B,"[3]; Combinations with Chitooligosaccharides, Test 3, B alone 20 ppm, leaf spray",17%
same,Percentage of disease control B,"[3]; Combinations with Chitooligosaccharides, Test 3, B alone 40 ppm, leaf spray",95%
same,Percentage of disease control B,"[3]; Combinations with Chitooligosaccharides, Test 3, B alone 100 ppm, leaf spray",98%
same,PR1 gene activation OV A or B (single component),"[1]; 37.5 ppm, 24 hpt",32.19 n-fold
same,PR1 gene activation OV A or B (single component),"[1]; 37.5 ppm, 48 hpt",72.31 n-fold
same,Percentage of disease control OV A or B (single component),[6]; Test 4,86%
"O=C(O)CCCCCCCC(=O)O [Azelaic acid, azelaic acid]",PDF1.2 gene activation OV A or B (single component),"[2]; 200 ppm, 24 hpt",331.01 n-fold
same,PDF1.2 gene activation OV A or B (single component),"[2]; 200 ppm, 48 hpt",87.56 n-fold
"CC(N)CC(=O)O (stereo not drawn) [Beta-Aminobutyric acid, beta-aminobutyric acid]",Percentage of disease control B,"[4]; Test 3, B alone 300 ppm",0%
same,Percentage of disease control OV A or B (single component),"[7]; Test 4 (spray treatment), 300 ppm",20%
same,Percentage of disease control B,[3]; in vivo,46%
same,PR1 gene activation OV A or B (single component),"[1]; 100 ppm, 24 hpt",2.53 n-fold
same,PR1 gene activation OV A or B (single component),"[1]; 100 ppm, 48 hpt",8.50 n-fold
same,PDF1.2 gene activation OV A or B (single component),"[2]; 100 ppm, 48 hpt",4.37 n-fold
same,Percentage of disease control B,[8]; [9],0%
O=S1(=O)N=C(OCc2snc(Cl)c2Cl)c2ccccc21 [Dichlobentiazox],Percentage of disease control OV A or B (single component),[7]; [10],0%
same,Percentage of disease control OV A or B (single component),[3]; 100 ppm,0%
same,Percentage of disease control B,[3]; in vivo,0%
same,Percentage of disease control B,[8]; [9],53%
"N#Cc1ccccc1NC(=O)c1snc(Cl)c1Cl [Isotianil, isotianil]",Percentage of disease control B,"[4]; Test 3, B alone 100 ppm",77%
same,Percentage of disease control OV A or B (single component),[7]; [11],10%
same,PDF1.2 gene activation OV A or B (single component),"[2]; 30 ppm, 24 hpt",18.22 n-fold
same,PDF1.2 gene activation OV A or B (single component),"[2]; 30 ppm, 48 hpt",57.21 n-fold
same,Percentage of disease control B,[8]; Combinations with Carrageenan,20%
same,Percentage of disease control B,[8]; [9],20%
same,Percentage of disease control B,[8]; Combinations with Laminarin,20%
"CC/C=C\CC1C(=O)CCC1CC(=O)OC (centres unmarked) [Methyl jasmonate, methyl jasmonate]",PR1 gene activation OV A or B (single component),"[1]; 600 ppm, 24 hpt",1.10 n-fold
same,PR1 gene activation OV A or B (single component),"[1]; 600 ppm, 48 hpt",36.36 n-fold
same,PDF1.2 gene activation OV A or B (single component),"[2]; 600 ppm, 24 hpt",6.93 n-fold
C=CCOC1=NS(=O)(=O)c2ccccc21 [Probenazole],Percentage of disease control B,"[4]; Test 3, B alone 100 ppm",71%
same,Percentage of disease control B,"[4]; Test 4, B alone 100 ppm",71%
same,Percentage of disease control OV A or B (single component),[7]; [10],0%
same,Percentage of disease control OV A or B (single component),[3]; 100 ppm,25%
same,Percentage of disease control B,[3]; in vivo,25%
same,PR1 gene activation OV A or B (single component),"[1]; 100 ppm, 48 hpt",102.9 n-fold and 102.90 n-fold
same,Percentage of disease control OV A or B (single component),[6]; Test 2,45%
same,Percentage of disease control OV A or B (single component),[6]; Test 3,45%
same,Percentage of disease control B,[8]; [9],7%
same,Percentage of disease control B,[8]; Combinations with Laminarin,7%
"O=C(O)c1ccccc1O [Salicylic acid, salicylic acid]",PR1 gene activation OV A or B (single component),"[1]; 100 ppm, 24 hpt",87.08 n-fold
same,PR1 gene activation OV A or B (single component),"[1]; 100 ppm, 48 hpt",58.77 n-fold
same,PDF1.2 gene activation OV A or B (single component),"[2]; 100 ppm, 24 hpt",12.69 n-fold
same,PDF1.2 gene activation OV A or B (single component),"[2]; 100 ppm, 48 hpt",7.80 n-fold
"Cc1ccc(NC(=O)c2snnc2C)cc1Cl [Tiadinil, tiadinil]",Percentage of disease control B,"[4]; Test 3, B alone 100 ppm",80%
same,Percentage of disease control OV A or B (single component),[7]; [11],0%
same,PDF1.2 gene activation OV A or B (single component),"[2]; 45 ppm, 24 hpt",189.33 n-fold
"Cc1ncc(C[n+]2csc(CCO)c2C)c(N)n1 [Vitamin B1, vitamin B1]",PR1 gene activation OV A or B (single component),"[1]; 8000 ppm, 24 hpt",8.35 n-fold
same,PDF1.2 gene activation OV A or B (single component),"[2]; 8000 ppm, 24 hpt",231.82 n-fold
same,PDF1.2 gene activation OV A or B (single component),"[2]; 8000 ppm, 48 hpt",319.68 n-fold
Flagellin,PR1 gene activation OV A or B (single component),"[1]; 2.3 ppm, 24 hpt",2.05 n-fold
same,PR1 gene activation OV A or B (single component),"[1]; 2.3 ppm, 48 hpt",5.89 n-fold
same,PDF1.2 gene activation OV A or B (single component),"[2]; 2.3 ppm, 24 hpt",1.44 n-fold
same,PDF1.2 gene activation OV A or B (single component),"[2]; 2.3 ppm, 48 hpt",0.94 n-fold
